The results in this text go back to publication PMC6620467, “Gram-scale synthesis of FICZ, a photoreactive endogenous ligand of the aryl hydrocarbon receptor” (Scientific Reports, 2019).

Read-outs that look alike come from different tables or passages of the source.

The target in one data set is T1, human AhR (Homo sapiens, UniProt P35869).
T1 sequence (P35869 11-848): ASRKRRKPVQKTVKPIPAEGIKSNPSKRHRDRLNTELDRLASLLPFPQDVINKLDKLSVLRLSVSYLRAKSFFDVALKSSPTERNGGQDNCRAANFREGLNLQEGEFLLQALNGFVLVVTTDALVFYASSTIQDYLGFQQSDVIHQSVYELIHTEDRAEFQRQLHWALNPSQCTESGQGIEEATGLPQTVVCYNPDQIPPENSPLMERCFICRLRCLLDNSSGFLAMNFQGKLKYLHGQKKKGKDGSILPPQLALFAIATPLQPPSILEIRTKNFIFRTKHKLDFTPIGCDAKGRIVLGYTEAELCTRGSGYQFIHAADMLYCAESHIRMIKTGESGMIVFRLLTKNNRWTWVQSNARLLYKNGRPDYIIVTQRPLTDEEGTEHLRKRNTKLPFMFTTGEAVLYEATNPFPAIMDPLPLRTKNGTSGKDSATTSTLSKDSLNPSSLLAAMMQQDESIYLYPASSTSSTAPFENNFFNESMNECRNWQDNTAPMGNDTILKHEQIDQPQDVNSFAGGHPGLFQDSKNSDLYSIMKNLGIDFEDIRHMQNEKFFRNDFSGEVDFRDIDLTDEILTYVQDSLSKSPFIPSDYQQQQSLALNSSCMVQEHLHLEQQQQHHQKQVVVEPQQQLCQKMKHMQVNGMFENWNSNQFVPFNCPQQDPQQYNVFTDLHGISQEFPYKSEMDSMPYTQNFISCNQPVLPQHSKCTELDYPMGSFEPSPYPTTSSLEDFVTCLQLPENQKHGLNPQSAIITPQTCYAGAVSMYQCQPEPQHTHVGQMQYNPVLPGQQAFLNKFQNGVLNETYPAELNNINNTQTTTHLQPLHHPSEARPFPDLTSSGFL
In words: cyp1a1 promoter β-lactamase reporter gene assay for AhR activation (CYP1A1-bla-LS180 cells). Background: In a reporter assay the amount or activity of a reporter protein is the signal.

A short description of data set [1]: Photostability test of DMSO-d6 solutions by 1H NMR (maleic acid internal reference). Format: physicochemical.
Description: Maleic acid was employed as an internal NMR reference.
The solution was analyzed by ^1H NMR as time point zero. 0.5 mL of the solution was placed into separate ICH 20 mL Flint clear glass bottles that were irradiated in a photostability chamber with illuminance set to 11000 lux as measured by a digital light meter. The contents of separate bottles were checked by ^1H NMR at 1 h, 2 h, 3 h, 4 h, 5 h, 7 h, 10 h, 16 h, and 24 h. […] A parallel experiment was run under the same conditions with ICZ (12.4 mg) and maleic acid (6.4 mg) in 5.1 mL of DMSO-d6 and stability data collected at 1 h, 2 h, 4 h, 6 h, 12 h, 18 h, and 24 h.
The solution was analyzed by ^1H NMR as time point zero. 0.5 mL of the solution was placed into separate ICH 20 mL Flint clear glass bottles that were placed in direct sunlight with illuminance of 63000 lux as measured by a digital light meter (from 1:00 PM to 3:40 PM on March 17, 2015, a sunny day with minimal clouds in Durham, NC, USA). The contents of separate bottles were checked by ^1H NMR at 1.5 min, 3 min, 10 min, 30 min, and 93 min.
The solution was analyzed by NMR as time point zero. The solution was then divided into four ICH 20 ml Flint clear glass bottles: Bottle A was exposed to air and was unprotected from the bright light; Bottle B: was flushed with nitrogen and left unprotected from the bright light; Bottle C was exposed to air but covered by aluminum-foil; and Bottle D was flushed with nitrogen and covered by aluminum foil. All bottles were placed in a photostability chamber with illuminance set to 11100 lux. The contents of each bottle were checked by ^1H NMR at 1 d, 4 d, 8 d, 14 d and 21 d using the quantification procedure described in Method 1.

Excerpt for human AhR: We employed a commercially available assay for AhR ligands in which a cell line had been engineered to express a reporter gene composed of the cyp1a1 promoter driving expression of a β-lactamase reporter. AhR ligands were detected by the increased expression of β-lactamase, which was quantified using a fluorescent substrate (see Materials and methods).
Intestinal human colon adenocarcinoma LS180 cells stably transfected with a β-lactamase reporter gene downstream of the cyp1a1 promoter were obtained from Invitrogen (catalog number K1678) and were used in accordance with the protocol described at https://www.thermofisher.com/document-connect/document-connect.html?url=https%3A%2F%2Fassets.thermofisher.com%2FTFS-Assets%2FLSG%2Fmanuals%2Fgeneblazer_cyp1a1blals0180_man.pdf, but adapted to run in 384-well plates.
CYP1A1-bla-LS180 cells (Invitrogen, catalog number K1678) were suspended in assay media (OptiMEM, 1% charcoal stripped serum, 1 mM sodium pyruvate, 0.1 mM NEAA) at a density of 20000 cells/mL. The compounds were dissolved in DMSO at a concentration of 10 mM. 0.5 mL of the compound solutions were added to a 384-well black, clear bottom, cell-coat assay plate (Griener Bio-one). […] A 50 μL aliquot of cell suspension was added to each well, and the compound plate was incubated overnight at 37 °C in 5% CO2. The plate was equilibrated at room temperature for 30 min before adding 10 μL of the LiveBLAzer™ FRET B/G substrate solution (Life Technologies) to each well. The plate was incubated for 90 min at room temperature in the dark before being read on a Perkin Elmer Envision using the bottom read fluorescence program with excitation at 400 nm and detection at 460/535 nm.

For the compound `O=C(O)c1c2[nH]c3ccccc3c2cc2[nH]c3ccccc3c12` [CICZ (9), 5,11-Dihydroindolo[3,2-b]carbazole-6-carboxylic acid], on human AhR, it took 400 ± 100 nM to reach a half-maximal effect (EC50). The “potency as AhR agonist relative to FICZ (1), times less potent” value at human AhR (cyp1a1 reporter gene assay) came to 40 times.

Take `CCOC(=O)c1c2[nH]c3ccccc3c2cc2[nH]c3ccccc3c12` [Compound 10, Ethyl 5,11-dihydroindolo[3,2-b]carbazole-6-carboxylate]: at human AhR, the EC50 (as a rule, the concentration giving half of the maximal effect) worked out at 160 ± 40 nM.

In turn, `OCc1c2[nH]c3ccccc3c2cc2[nH]c3ccccc3c12` [Compound 11, (5,11-Dihydroindolo[3,2-b]carbazol-6-yl)methanol] displayed an EC50 on human AhR of 160 ± 90 nM.

On to `O=C1c2[nH]c3ccccc3c2C(=O)c2[nH]c3ccccc3c21` [Compound 13, Indolo[3,2-b]carbazole-6,12-dione], for which the EC50 at human AhR was 70 ± 15 nM. In addition, at human AhR (cyp1a1 reporter gene assay), the “decrease in potency for activation of AhR versus FICZ (1)” value was “at least 7 fold”.

With `O=Cc1c2[nH]c3ccccc3c2cc2[nH]c3ccccc3c12` [FICZ (1), 6-Formylindolo[3,2-b]carbazole], the “time to complete decomposition” value in data set [1] (Condition A: DMSO solution, bright light (11000 lux) and air) was at most 1 days. Further, in data set [1] (DMSO solution, air, protected from light with aluminum foil, over 28 d), the “decomposition, Condition C” value is “further slowed, but did not prevent the decomposition”. For the same compound, the “decomposition, Condition B” value in data set [1] (DMSO solution, bottle flushed with nitrogen, 11000 lux light, over 28 d) is reported as “much slower”. Moreover, the “decomposition, Condition D” value in data set [1] (DMSO solution, removal of air and protection from light, over 28 d) is “slowest rate of decomposition”. For the same compound, the half-life (in general, the time needed for the level to fall by half in the phase considered) at 3 mg/mL in data set [1] (DMSO-d6 solution in clear Flint glass bottle, DMSO-d6 solution, air and light, 11000 lux, clear Flint bottle, read-out: half-life of decomposition (converted)) is about 3 h. In data set [1] (DMSO-d6 solution in clear Flint glass bottle, DMSO-d6 solution, air, direct sunlight 63000 lux, read-out: half-life of decomposition), the half-life at 2.125 mg/mL is about 0.5 h. The “stability as pure solid” value in data set [1] (pure solid) is “stable”.

For the compound `c1ccc2c(c1)[nH]c1cc3c(cc12)[nH]c1ccccc13` [ICZ (12), reference compound], the EC50 on human AhR was 30 ± 10 nM. Besides, the “decomposition rate relative to FICZ (1), times slower” value in data set [1] (DMSO-d6 solution, air and light, 11000 lux, identical conditions) is reported as “at least 10 times”.

`Clc1cc2c(cc1Cl)Oc1cc(Cl)c(Cl)cc1O2` [TCDD, reference compound]: the EC50 at human AhR (read-out: EC50 of standard AhR ligand in cyp1a1 reporter assay, control experiments, data not shown) turned out to be 0.31 nM.
